Reference: patent US20220257571A1, “INHIBITOR OF MAP KINASE INTERACTING SERINE/THREONINE KINASE 1 (MNK1) AND MAP KINASE INTERACTING SERINE/THREONINE KINASE 2 (MNK2), CANCER THERAPY AND THERAPEUTIC COMBINATIONS” (FUNPACIÓ HOSPITAL UNIVERSITARI VALL D'HEBRON - INSTITUT DE …, priority 2019, published 2022)

Tests used:
[1] = system: eIF4E phosphorylation in MCF10 cells; assay: inhibition of eIF4E phosphorylation by Western Blot in MCF10 cells; type: cell-based; conditions: Homo sapiens; immortalised non-tumour breast cells (MCF10)
Method: MCF10A cells (also commercially available) were grown in DMEM/F-12 medium (Dulbecco's Modified Eagle Medium: 3.125 g/L D-Glucosa, 365 mg/L L-Glutamine, Nutrient Mixture F-12 (Gibco)) supplemented with 10% FBS, 100 U/ml penicillin, 100 μg/ml streptomycin, 1% L-Glutamine (Cambrex), 10 ng/ml choleric toxin (Sigma-Aldrich), 0.005 mg/ml insulin (Sigma), 100 ng/ml hydrocortisone (Sigma) and 20 ng/ml EGF (Epidermal growth factor, Sigma).
(§1) Inhibition of eIF4E phosphorylation was quantified by Western Blot. Cells were seeded in 60 mm plates (700,000 cells for 24 h, 500,000 cells for 48 h and 300,000 cells for 72 h).
(§2) After 24 h, the treatments were added. The stocks of compounds were prepared in […] at a concentration 200 times more concentrated than the treatment concentration. Thus, in all cases, the final concentration of DMSO in the medium was 0.5%.
After incubation, proteins were removed and Western Blot was performed. […] The samples were centrifuged at 15,000 g and the supernatant was quantified by the Bradford method. […] Selectivity against MNK was analysed with ERK, p-ERK, MNK1, p-MNK1, 4EBP1 and p-4EBP1 antibodies.

[2] = system: eIF4E phosphorylation in leukaemia cells (MV4-11); assay: titration of eIF4E phosphorylation in MV4-11 cells; type: cell-based
Method: MV4-11 cells were grown in IMDM medium (Iscove's Modified Dulbecco's Medium, Gibco) supplemented with 10% FBS, 1% L-glutamine, 100 U/ml penicillin and 100 μg/ml streptomycin.
as §1, §2
(§3) After incubation, proteins were removed and Western Blot was performed. On ice, the plates were washed with PBS and the cells were lysed with 60 μl lysis buffer (50 mM Tris, 200 mM NaCl, 5 mM EDTA, 0.1% Triton 100×, pH 7.5 supplemented with protease inhibitors (EDTA-free Protease Inhibitor Cocktail Set III, Calbiochem) and phosphatase inhibitors (Phosphatase Inhibitor Cocktail Set II, Calbiochem)). The samples were centrifuged at 15,000 g and the supernatant was quantified by the Bradford method. The samples were all diluted to the same concentration with a lysis buffer and loading buffer (Laemmli buffer) and denatured for 5 minutes at 95° C. […] Selectivity against MNK was analysed with ERK, p-ERK, MNK1, p-MNK1, 4EBP1 and p-4EBP1 antibodies. […]

[3] = system: eIF4E phosphorylation in melanoma cells (A375M); assay: titration of eIF4E phosphorylation in A375M cells; type: cell-based
Method: (§4) Commercially available MDA-MB-231, MDA-MB-468, MCF7 and A375M, IMR90 (IMR-90 (ATCC® CCL-186TH) cells were grown at 37° C. and 5% CO2 in DMEM medium (Dulbecco's Modified Eagle Medium, 4.5 g/I glucose; 30 mg/I L-Glutamine (Gibco)) supplemented with 10% foetal bovine serum, 100 U/ml penicillin and 100 μg/ml streptomycin.
as §1, §2
as §3, with “method.” for “method. The samples were all diluted to the same concentration with a lysis buffer and loading buffer (Laemmli buffer) and denatured for 5 minutes at 95° C.”

[4] = system: MNK1/2; assay: radiometric kinase assay (33PanQinase Activity Assay), IC50; type: biochemical
Method: (§5) The kinase activity of the compound was measured by a radiometric kinase assay (^33PanQinase® Activity Assay) carried out by Proqinase (www.proqinase.com).
(§6) The assays were carried out in 96-well FlashPlates™ by PerkinElmer (Boston, Mass., USA) with a reaction volume of 50 μl. The reaction cocktail was pipetted in 4 steps: (1) 20 μl buffer, (2) 5 μl ATP solution (in H2O), (3) 5 μl compound (in 10% DMSO) and (4) 20 μl enzyme/substrate mixture. Lastly, the cocktail contained 70 mM HEPES-NaOH pH 7.5, 3 mM MgCl2, 3 mM MnCl2, 3 μM sodium orthovanadate, 1.2 mM DTT, 50 μg/ml PEG20000, ATP (1 μM for MNK1 and 0.3 μM for MNK2), [γ-^33P]-ATP (approx. […] per well), protein kinase (variable amounts depending on the batch) and substrate (2 μg/50 μl).
(§7) Reaction cocktails were incubated at 30° C. for 60 minutes. The reaction was stopped with 50 μl of 2% H3PO4 (v/v), the plates were sucked, they were washed twice with 200 μl of 0.9% NaCl (w/v) and the incorporation of ^33Pi (MicroBeta microplate scintillation counter, Wallac) was determined. All assays were performed with a Beckman Coulter/SAGIAN™ system.
(§8) The residual activity (in %) for each well of a particular plate was calculated using the following formula (wherein high control is the kinase activity in absence of an inhibitor and low control is the radioactivity value of the substrate in absence of a kinase).

[5] = target: T1, MNK1/2; assay: as above; type: biochemical; conditions: MNK1/2, isoform not stated; read-out: enzymatic IC50
T1 construct: rows headed: enzymatic IC50
Method: as §5, §6, §7, §8

[6] = system: 22Rv1 castration resistant prostate cancer cells; assay: cell viability of 22Rv1 cells, EB1 with Enzalutamide; type: cell-based; conditions: 22Rv1, co-treatment with Enzalutamide, 72 h
Method: Cell viability under combined inhibition of AR and eIF4E phosphorylation was assayed. […] (B) Number of viable cells after 72 h treatment with pairwise combinations reported as percentage relative to control. (E) Cell viability data presented as a grid displaying the percentage of affected cells by each pairwise combination of drug doses. (C) Drug combinations with the strongest inhibition in cell viability (bars; mean±SEM; n=3. *p<0.05, **p<0.01 two-tailed Student's test). (F) Combination index (CI) presented as a grid for each pairwise combination of drug doses calculated by the Chou-Talalay method at non-constant ratio. (D and I) Fraction affected vs. combination index (CI) plots.

[7] = system: eIF4E phosphorylation in breast cancer cells (MDA-MB-468); assay: titration of eIF4E phosphorylation in MDA-MB-468 cells; type: cell-based
Method: as §4, §1, §2
as §3, with “method.” for “method. The samples were all diluted to the same concentration with a lysis buffer and loading buffer (Laemmli buffer) and denatured for 5 minutes at 95° C.”

[8] = system: eIF4E phosphorylation in MDA-MB-231 cells; assay: inhibition of eIF4E phosphorylation by Western Blot in MDA-MB-231 cells; type: cell-based, human
Method: as §4, §1, §2
After incubation, proteins were removed and Western Blot was performed. On ice, the plates were washed with PBS and the cells were lysed with 60 μl lysis buffer (50 mM Tris, 200 mM NaCl, 5 mM EDTA, 0.1% Triton 100×, pH 7.5 supplemented with protease inhibitors (EDTA-free Protease Inhibitor Cocktail Set III, Calbiochem) and phosphatase inhibitors (Phosphatase Inhibitor Cocktail Set II, Calbiochem)). The samples were centrifuged at 15,000 g and the supernatant was quantified by the Bradford method. The samples were all diluted to the same concentration with a lysis buffer and loading buffer (Laemmli buffer) and denatured for 5 minutes at 95° C. The proteins were separated on a 12% […] gel (20 μg were loaded per well) and transferred to a PDVF (Polyvinylidene fluoride) membrane. β-Actin antibodies, abbreviated as “actin” in the figures (Calbiochem), eIF4E (anti-rabbit, Cell signalling), and phosphorylated-eIF4E (S209) (anti-rabbit, Cell signalling) in 5% BSA in TBST were used to study the activity of the compounds. Selectivity against MNK was analysed with ERK, p-ERK, MNK1, p-MNK1, 4EBP1 and p-4EBP1 antibodies.

[9] = target: T2, MNK1 (Homo sapiens, UniProt Q9BUB5); assay: radiometric kinase assay (33PanQinase Activity Assay), MNK1; type: biochemical
T2 construct: purchased Proqinase
T2 sequence (Q9BUB5 whole entry): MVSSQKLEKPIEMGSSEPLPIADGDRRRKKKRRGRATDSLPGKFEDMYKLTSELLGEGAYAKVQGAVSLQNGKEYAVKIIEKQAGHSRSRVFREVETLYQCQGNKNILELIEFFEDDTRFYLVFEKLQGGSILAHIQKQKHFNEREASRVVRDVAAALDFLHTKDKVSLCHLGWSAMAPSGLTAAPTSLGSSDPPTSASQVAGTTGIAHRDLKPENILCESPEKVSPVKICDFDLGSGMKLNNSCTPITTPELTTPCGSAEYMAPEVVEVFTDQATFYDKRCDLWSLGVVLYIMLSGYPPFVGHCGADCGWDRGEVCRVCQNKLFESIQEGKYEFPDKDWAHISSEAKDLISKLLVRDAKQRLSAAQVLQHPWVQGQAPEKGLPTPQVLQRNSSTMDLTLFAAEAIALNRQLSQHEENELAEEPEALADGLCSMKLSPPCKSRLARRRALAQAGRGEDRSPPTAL
Method: as §5, §6, §7, §8
To screen compounds, the residual activity of both kinases was analysed after treatment with 10 μM of the compounds.
To study selectivity, residual activity was measured at 1 μM from a 320-kinase panel.

SMILES: Nc1n[nH]c2nc(-c3ccccc3)cc(-c3ccccc3)c12 [EB1, 4,6-diphenyl-1H-pyrazolo[3,4-b]pyridin-3-amine]
- EC50 [1]: 700 nM
- activity as MNK inhibitor (eIF4E phosphorylation) [2]: active
- activity as MNK inhibitor (eIF4E phosphorylation) [3]: active
- mode of MNK1/2 inhibition [4]: non-ATP competitive
- IC50 [5]: 700 nM
- effect of co-treatment on cell viability [6]: synergistic effect
- activity as MNK inhibitor (eIF4E phosphorylation) [7]: active
- EC50 ([8]; Homo sapiens, MDA-MB-231 triple-negative breast cancer cells, read-out: in vitro EC50, inhibition of eIF4E phosphorylation): ~1500 nM
- concentration at which eIF4E phosphorylation is significantly reduced ([8]; MDA-MB-231): greater than 2.5 μM
- concentration giving almost complete inhibition of eIF4E phosphorylation ([8]; MDA-MB-231): ≥ 2.5 µM
- duration of the effect on eIF4E phosphorylation ([8]; MDA-MB-231): at least 72 h
- reversal of the increased eIF4E phosphorylation caused by doxorubicin ([8]; MDA-MB-231, 5 μM EB1 with doxorubicin): can be reversed
- effect on components of the signalling pathway (p-MNK, ERK, 4E-BP1) ([8]; MDA-MB-231, Western Blot): does not affect any of the components of the signalling pathway
- remaining activity at 10 µM ([9]; after treatment with 10 μM compound, ATP 1 μM, read-out: residual activity of MNK1): 14%
- inhibition at 1 µM ([9]; at 1 uM, kinase panel): 48%
